Measurements taken from ChEMBL document CHEMBL6096646, “Sulfonamide-derivatized galactosides selectively target an unexplored binding site in the galectin-9N-terminal domain” (Bioorg Med Chem, 2024).
pKd: −log10 of the molar value.

Biological target: Galectin-7 (Homo sapiens, UniProt P47929)
Assay: Binding affinity to human Galectin-7 assessed as dissociation constant by competitive fluorescence polarization assay

Galectin-7, sequence (P47929 whole entry): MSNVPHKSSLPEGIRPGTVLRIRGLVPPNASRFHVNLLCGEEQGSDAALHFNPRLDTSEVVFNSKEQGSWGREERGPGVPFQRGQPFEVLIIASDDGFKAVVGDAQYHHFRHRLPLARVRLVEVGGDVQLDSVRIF

| pKd | Structure (SMILES) |
| --- | --- |
| < 3.00 | CO[C@H]1O[C@H](CO)[C@H](O)[C@H](n2cc(-c3ccccc3NS(=O)(=O)c3cc(C(F)(F)F)cc(C(F)(F)F)c3)nn2)[C@H]1O |
| < 3.22 | O=S(=O)(Nc1ccccc1-c1cn([C@@H]2[C@@H](O)[C@@H](Sc3ccc(Cl)c(Cl)c3)O[C@H](CO)[C@@H]2O)nn1)c1cc(C(F)(F)F)cc(C(F)(F)F)c1 |
